According to ChEMBL document CHEMBL5506022, “Discovery of Novel Dual Inhibitors Targeting Mutant IDH1 and NAMPT for the Treatment of Glioma with IDH1Mutation” (J Med Chem, 2024):
The source made the active and inactive calls. The calls are words filed in the database; no cut-off is given here.

How the values were obtained:
U-87 MG [1] = assay: Antiproliferative activity against human U-87 MG cells harboring wildtype IDH1 assessed as inhibition of cell growth incubated for 24 hrs by CCK8 assay; assay type: functional, cell-based, U-87MG ATCC
U-87 MG [2] = assay: Antiproliferative activity against human U-87 MG cells harboring wildtype IDH1 assessed as inhibition of cell growth incubated for 48 hrs by CCK8 assay; assay type: functional, cell-based, U-87MG ATCC
U-87 MG [3] = assay: Antiproliferative activity against human U-87 MG cells harboring wildtype IDH1 assessed as inhibition of cell growth incubated for 72 hrs by CCK8 assay; assay type: functional, cell-based, U-87MG ATCC
U-87 MG [4] = assay type: functional, cell-based, U-87MG ATCC; settings: Homo sapiens, 24 h
U-87 MG [5] = assay type: functional, cell-based, U-87MG ATCC; settings: Homo sapiens, 48 h
U-87 MG [6] = assay type: functional, cell-based, U-87MG ATCC; settings: Homo sapiens, 72 h
U-87 MG [7] = assay: Synergistic antiproliferative activity against human U-87 MG cells harboring wildtype IDH1 assessed as inhibition of cell growth incubated for 48 hrs in presence of AG-120 by CCK8 assay; assay type: functional, cell-based, U-87MG ATCC
U-87 MG [8] = assay: Synergistic antiproliferative activity against human U-87 MG cells harboring wildtype IDH1 assessed as inhibition of cell growth incubated for 48 hrs in presence of IDH305 by CCK8 assay; assay type: functional, cell-based, U-87MG ATCC
U-87 MG [9] = assay type: functional, cell-based, U-87MG ATCC; settings: Homo sapiens, 48 h; remark: listed apart in the source
U-87 MG [10] = assay type: functional, cell-based, U-87MG ATCC; settings: Homo sapiens, 48 h; remark: listed apart in the source
U-87MG ATCC [11] = assay: Effect on intracellular NADP+ level in human U-87 MG cells harboring wildtype IDH1; assay type: functional, cell-based
U-87MG ATCC [12] = assay type: functional, cell-based; settings: Homo sapiens, dose 0.5 µM, time 48.0 hrs
U-87 MG [13] = assay type: functional, organism-based; settings: Homo sapiens; U-87MG ATCC; dose 30.0 mg/kg, route ip, time 35.0 day
U-87 MG [14] = assay: cells; settings: Homo sapiens, 48 h, read-out: Activity
U-87 MG [15] = assay: cells; settings: Homo sapiens, 48 h, read-out: Activity; remark: listed apart in the source
U-87 MG [16] = assay: Synergistic antiproliferative activity against human U-87 MG cells harboring wildtype IDH1 assessed as inhibition of cell growth incubated for 48 hrs in presence of FK866 by CCK8 assay; assay type: functional, cell-based, U-87MG ATCC
U-87 MG [17] = assay type: functional, cell-based, U-87MG ATCC; settings: Homo sapiens, 48 h; remark: listed apart in the source
U-87 MG [18] = assay: Synergistic antiproliferative activity against human U-87 MG cells harboring wildtype IDH1 assessed as combination index incubated for 48 hrs in presence of FK866 by CCK8 assay; assay type: functional, U-87MG ATCC
U-87 MG [19] = assay type: functional, Homo sapiens, U-87MG ATCC; settings: time 48 hrs
U-87 MG [20] = assay type: functional, Homo sapiens, U-87MG ATCC; settings: dose 300 mg/kg; route po; time 35 day
U-87 MG [21] = assay type: functional, Homo sapiens, U-87MG ATCC; settings: dose 300 mg/kg; route po; time 35 day; remark: listed apart in the source
U-87 MG [22] = assay type: functional, organism-based; settings: Homo sapiens; U-87MG ATCC; dose 300.0 mg/kg, route po, time 35.0 day

| SMILES | IC50 (U-87 MG [1]) | IC50 (U-87 MG [2]) | IC50 (U-87 MG [3]) | IC50 (U-87 MG [4]) | IC50 (U-87 MG [5]) | IC50 (U-87 MG [6]) | Activity (U-87MG ATCC [11]) | Activity (U-87MG ATCC [12]) | viability at 1 µM (U-87 MG [14]) | other results |
| --- | --- | --- | --- | --- | --- | --- | --- | --- | --- | --- |
| O=C(/C=C/c1cccnc1)NCCCCC1CCN(C(=O)c2ccccc2)CC1 [DAPORINAD] | 5460 nM | 2550 nM | 1630 nM | 1040 nM | 970 nM | 410 nM | inactive | inactive | 40.8% | IC50 (U-87 MG [7]): 2510 nM; IC50 (U-87 MG [8]): 1690 nM; IC50 (U-87 MG [9]): 560 nM; IC50 (U-87 MG [10]): 450 nM; Activity (U-87 MG [13]): Active; viability at 1 µM (U-87 MG [15]): 27.8% |
| Cc1cc([C@H](C)Nc2nccc(N3C(=O)OC[C@@H]3[C@H](C)F)n2)ncc1-c1ccnc(C(F)(F)F)c1 | 20100 nM | 7570 nM | 3540 nM | 1040 nM | 440 nM | 360 nM | inactive | inactive | 34.7% | IC50 (U-87 MG [16]): 1690 nM; IC50 (U-87 MG [17]): 450 nM; CI (U-87 MG [18]): 0.83; CI (U-87 MG [19]): 0.91; MST (U-87 MG [20]): 23.5 days; MST (U-87 MG [21]): 26.5 days; Activity (U-87 MG [22]): Active |
